Measured values reported in article PMC6710338, “Turning a Collagenesis-Inducing Peptide Into a Potent Antibacterial and Antibiofilm Agent Against Multidrug-Resistant Gram-Negative Bacteria” (Frontiers in Microbiology, 2019).
Peptide text beside a SMILES is read from it.

System: preformed biofilms of MDR P. aeruginosa isolates
Test: Effect on 24 h preformed biofilms (OD600 of planktonic phase)
Assay type: cell-based, Pseudomonas aeruginosa
Details: 20 × MIC, vs non-treated biofilm
Method: The efficacy of peptide 3.1-PP4 on 24 h preformed biofilms of PA002, PA004, KP004, KP007, and KP010 was also evaluated ([Gomes et al., 2014]). Briefly, biofilms were grown in TSB from a starting inoculum of 1 × 10^6 CFU/mL in 96-well microtiter plates. […] The optical density at 600 nm (OD600) was measured at time 0 and after incubation for 24 h at 37°C. The reduction in the biofilm proliferation was calculated in comparison to the respective non-treated biofilms. Two independent experiments were performed in triplicate.
In the case of control biofilms, the second 24 h growth period occurred in the absence of the peptide. Based on the apparent higher efficiency of peptide 3.1-PP4 to inhibit the formation of K. pneumoniae than P. aeruginosa biofilms, only two MDR isolates of the latter were included in this assay, whereas three MDR K. pneumoniae were tested. Optical density of the planktonic phase, as a measure of biofilm proliferation, was reduced in all peptide-treated biofilms, ranging from 3 to 21% reduction on P. aeruginosa isolates, and from 34 to 56% reduction on K. pneumoniae isolates (Table 4).

In the case of CC(C)C[C@H](NC(=O)[C@H](Cc1c[nH]c2ccccc12)NC(=O)[C@H](CCCCN)NC(=O)[C@H](CC(C)C)NC(=O)[C@H](CC(C)C)NC(=O)[C@H](CCCCN)NC(=O)[C@@H](N)CCCCN)C(=O)N[C@@H](CC(C)C)C(=O)N[C@@H](CCCCN)C(=O)N[C@@H](CC(C)C)C(=O)N[C@@H](CC(C)C)C(=O)N[C@@H](CCCCN)C(=O)N[C@H](C(=O)N[C@H](C(=O)N[C@@H](CCCCN)C(=O)N[C@@H](CO)C(N)=O)[C@@H](C)O)[C@@H](C)O [Peptide 3.1-PP4] (H-KKLLKWLLKLLKTTKS-NH2; N-terminus assumed), the “% reduction in biofilm proliferation upon treatment” value (isolate PA002, 24 h preformed biofilm) was 2.8% and the “% reduction in biofilm proliferation upon treatment” value (isolate PA004, 24 h preformed biofilm) was 21%.
